Assays:
[1] = test system: hypoxic ischemic border zone; assay: Rabbit focal myocardial ischemia model (LAD occlusion), double-label autoradiography; type: in vivo; conditions: permanent LAD coronary artery ligation, intravenous tracer, heart sections, listed as 99mTc complex of the ligand described in Example 1
Method: A model of focal myocardial ischemia in the rabbit was developed, using permanent ligation of the left anterior descending (LAD) coronary artery. The model consisted of two studies. In the first, relative regional myocardial blood flow (MBF) and relative regional myocardial rate of glucose metabolism (MMRgl) were determined by autoradiography using a double-label study with the flow tracer ^99mTcCl(CDO)3MeB (R. K. Narra et al., J. Nucl. Med., 1989; 30:1830-1837) and ^14C-deoxy-glucose for MMRgl (L. Sokoloff et al., J. Neurochem., 1977, 28, 897-916). ^14C-deoxyglucose and the ^99mTc-hypoxia-localizing tracer were administered to a second group of rabbits with LAD coronary artery occlusion.
After the surgical preparation and 20 minutes of LAD occlusion, ^14C-deoxyglucose (130-150 μCi) was injected as an intravenous bolus, and timed arterial blood samples were obtained. Twenty-five minutes later, ^99mTcCl(CDO)3MeB (10-12 mCi) was administered intravenously. Five minutes later, the rabbits were sacrificed by intravenous injection of Nembutal and potassium chloride. The heart was excised, frozen in liquid Freon-22, and 20 μm coronal sections obtained with a Microtome. Autoradiographs were obtained on all sections. For the first exposure (˜14 hours duration) of Kodak XAR film, extra heavy duty aluminum foil was interposed between the tissue and film to block completely the radiation emanating from ^14C to obtain the MBF information derived from ^99mTcCl(CDO)3MeB alone. After three days (to allow for decay of ^99mTc); a second autoradiograph was obtained without foil. The second exposure lasted 6-8 days, and,provided an image of the regional distribution of ^14C-deoxyglucose.
In a separate experiment using the rabbit LAD occlusion model and the double-label autoradiography procedures described above, the performance of the ^99mTc complex of the ligand described in Example 1 was compared to that of ^14C-misonidazole.

[2] = test system: Isolated Perfused Rat Heart; assay: Isolated perfused heart studies (Langendorff), retention of tracer; set-up: species or system male Sprague Dawley rats; conditions: radioactivity 40 minutes after end of 20 minute infusion divided by peak, n=4
Method: Hearts were excised from male Sprague Dawley rats (275-325 g) and were perfused retrogradely using the Langendorff method (O. Langendorff, Pfleugers Arch. ges. Physiol, 61, 291, […]) with modifications described previously (W. Rumsey, D. F. Wilson and M. Erecinska, Am. J. Physiol., 253 (Heart Circ. Physiol. 22): H1098, 1987) in the isolated state at 37° C. with Krebs-Henseleit buffer. The perfusate contained [in mM] NaCl, KCl [4.7], CaCl2 [1.8], Na2EDTA [0.5], KH2PO4 [1.2], MgSO4 [1.2], NaHCO3 [25], glucose, pyruvate [0.2], and insulin (12 IU/L) and was equilibrated with O2:CO2 (95:5) (global normoxia) or N2:CO2 (95:5) (global hypoxia). The hearts were paced continuously at 5 Hz. […]
For determination of oxygen consumption, a cannula was placed in the right ventricle via the pulmonary artery. A pump removed a small fraction of the coronary effluent at 1 mL/min., and its oxygen concentration was monitored continuously by an in-line Clark-type electrode. […] Coronary flow was measured by collecting the effluent from the right and left pulmonary arteries in a 10 mL graduated cylinder. Oxygen consumption was calculated from the product of the influent-effluent oxygen concentration difference and the coronary flow. During perfusion with hypoxic medium, only the effluent oxygen concentration was recorded. […]

[3] = test system: Calcium-tolerant ventricular myocytes; assay: Isolated cardiac myocyte studies, retention of radioactivity; type: cell-based, male Sprague Dawley rats; conditions: for Oil: dibutyl phthalate layer; for Oil / PCA Pellet / Cell Pellet: means ±S.E.M.; for PCA Pellet: perchloric acid-precipitated pellet; for Cell Pellet: whole cells passed through dibutyl phthalate; for percentage of activity associated with the protein/membrane fragments: cells disrupted by freezing and thawing (3×)
Text: Calcium-tolerant ventricular myocytes were isolated from hearts of male Sprague Dawley rats (200 g) according to the procedure of Wittenberg and Robinson (B. A. Wittenberg and T. F. Robinson, Cell Tissue Res., 216: 231, 1981) with modifications described previously (W. Rumsey, C. Schlosser, E. M. Nuutinen, M. Robiolio and D. F. Wilson, J. Biol. Chem., 265 (26): 15392, 1990). Cells were used immediately following morphological analysis (using a hemocytometer) of viability and were maintained at 37° C. during the experiments. The number of quiescent, rod shaped cells ranged from 70-90% within a total population of 5-9×10^6 cells.
The isolated myocytes were maintained in either a normoxic, hypoxic or anoxic state. Hypoxia was induced by providing an atmosphere of argon atop of the cells and sealing the flask during the incubation period. Glucose oxidase plus catalase (5/5 mg) was added to argon treated cells to provide anoxia. Cells were suspended (6.5-7.5×10^4 cells/ml) in isolation media and aliquots were added to incubation vials maintained at 37° C.
After incubation with a test compound, myocytes were deproteinated with 1% ice-cold perchloric acid and centrifuged at 12,000 rpm for 30 sec. The supernatent was separated from the pellet and each counted using a LKB 1282 gamma counter. Alternatively, myocytes were separated from the suspending media by passing the cells through 99% dibutyl phthalate by centrifugation at 12,000 rpm for 30 sec. The three phases were separated and counted as described above. Results for the Tc-99m complex of the compound in Example 1 are given below:
Values represent means ±S.E.M. for the number of experiments noted in the parentheses. The values are the percent of total radioactivity represented by each case. PCA pellet=perchloric acid-precipitated pellet which represents the activity associated with proteins/membranes. Cell pellet=whole cells passed through a layer of dibutyl phthalate (oil).
Several Tc-99m complexes were examined in isolated myocytes using the protocol described above. The percentage of activity retained in the cell pellet was determined under anoxic and normoxic states.

[4] = Anoxia (Glucose Oxidase) (n = 4)
[5] = isolated myocytes, several Tc-99m complexes
[6] = separate study, number of experiments in parentheses

[^99mTc]Oxo[[3,3,9,9-tetramethyl-1-(2-nitro-1H-imidazo-1-yl)-4,8-diazaundecane-2,10-dione dioximato]-(3-)-N,N′,N″,N′″]technetium(V) [^99mTc complex from ligand in Ex. 1]
regional myocardial distribution pattern (autoradiography) [1]: high uptake in the hypoxic border zone of the ischemic territory and low uptake in normoxic regions
% Retention of Tracer in the Isolated Perfused Rat Heart, Hypoxia ([2]; N2:CO2 (95:5)): 65.3 ± 3%
% Retention of Tracer in the Isolated Perfused Rat Heart, Normoxia ([2]; O2:CO2 (95:5)): 33.5 ± 2.5%
Anoxia/normoxia [3]: 2.7
Anoxia/normoxia ratio [3]: 2.3
Hypoxia/normoxia [3]: 1.7
Oil [3, 4]: 9.0 ± 2.6% of total radioactivity
PCA Pellet [3, 4]: 55.5 ± 5.8% of total radioactivity
Cell Pellet [3, 4]: 48.8 ± 4.2% of total radioactivity
Oil ([3]; Hypoxia (Argon) (n = 4)): 20.1 ± 5.3% of total radioactivity
PCA Pellet ([3]; Hypoxia (Argon) (n = 4)): 48.5 ± 3.4% of total radioactivity
Cell Pellet ([3]; Hypoxia (Argon) (n = 4)): 36.9 ± 8.8% of total radioactivity
Oil ([3]; Normoxia (n = 5)): 22.8 ± 2.2% of total radioactivity
PCA Pellet ([3]; Normoxia (n = 5)): 40.5 ± 2.7% of total radioactivity
Cell Pellet ([3]; Normoxia (n = 5)): 23.2 ± 3.7% of total radioactivity
percentage of activity associated with the protein/membrane fragments ([3]; anoxic (glucose oxidase), n=3): 25.3±2.5%
percentage of activity associated with the protein/membrane fragments ([3]; normoxic, n=3): 23.3±0.8%
% in Cell Pellet, Anoxia [3, 5]: 53.0 ± 2.2%
% in Cell Pellet, Normoxia [3, 5]: 24.1 ± 2.3%
effect of FCCP (uncoupler) on retention ([3]; normoxic cells): had no effect on the retention
effect of cyanide on retention ([3]; normoxic cells, n=3): had no effect on retention in normoxic cells
uptake in isolated myocytes, Anoxia [3, 6]: 48 ± 6 (3)
uptake in isolated myocytes, Hypoxia [3, 6]: 30 ± 7 (3)
uptake in isolated myocytes, Normoxia [3, 6]: 18 ± 1 (3)

From US6958141B2, “Rhenium and technetium complexes containing a hypoxia-localizing moiety” (Bracco International B.V., priority 1991, dated 2005)
